According to patent US8497240B2 (priority 2006, dated 2013):
pEC50: −log10 of the molar value. “And” between values parts separate entries of the source, which are not always exact repeats. Equal values may be shown once. Read-outs that look alike come from different tables or passages of the source. Ends that are not written are not given here.

How the values were obtained:
[1] = Intravenous glucose tolerance test (IVGTT), i.v. infusion; format: in vivo, rat; details: for insulinotropic response to an intravenous glucose challenge (IVGTT assay) / insulin levels prior to the glucose challenge: 100 pmol/kg/min infusion, rats; for IVGTT > = < Compared to 0601GIP3794 / Standard IVGTT assay IV infusion (insulin AUC 0-30 min): rat
Experimental: In the typical IVGTT assays the test sample was administered by IV infusion. The IV infusion of sample was initiated at t=−30 min and continued through t=90. IV glucose was given at t=0. To determine a duration of action using the IVGTT assay, the sample was injected SC as a single injection at one time point indicated (e.g., t=−240, −120, −60 or −30) prior to administration of glucose. IV glucose was given at t=0.
As described, fed, isoflurane anesthetized HSD male rats were intubated and cannulated via femoral artery and vein and allowed to stabilize for 1 hour. […] At t=0, an i.v. bolus of 5.7 mmol/kg D-glucose was administered over 2 minutes. Samples for glucose measurement and insulin concentrations were taken at various time points before and after (0 to 90 minutes) glucose infusion.

[2] = format: in vivo, NIH/Swiss mice; details: for Basal Glucose Lowering at Peptide Conc. of 80 nmol/kg / Basal Gluc. Low. 80 nmol/Kg: AUC240
Experimental: (§1) In FIG. 3A, bars represent mean±sd, n=6-10. […] Gavage (1.5 g/kg) was given at t=0, Sample was taken at t=30 min. […] In FIG. 3B, points represent mean±sem, n=8-15.
Points represent mean±sem.

[3] = format: in vivo, NIH/Swiss mice
Experimental: as §1
Peptide was injected IP at t=−5 minutes into 4-hour fasted NIH/Swiss female mice. […] In FIG. 17 points represent mean+/−sem. […] Samples were taken at t=60, t=120 and t=180.

[4] = Telemetry of circulatory effects in conscious rats; details: 80 nmol/kg intravenous
[5] = IVGTT duration of action assay (single SC injection before glucose); format: in vivo, rat
Experimental: To determine a duration of action using the IVGTT assay, the sample was injected SC as a single injection at one time point indicated (e.g., t=−240, −120, −60 or −30) prior to administration of glucose. IV glucose was given at t=0.

[6] = for food intake: mouse, in vivo, ip; for Mouse Food Intake, % basal: dose per compound (4.8 to 25 nmol/Kg)
[7] = format: in vivo, db/db mice
Experimental: Peptide was injected IP at t=0 immediately following baseline sample into 2-hour fasted db/db mice.

[8] = target: cardiomyocyte Gs-coupled receptors; test: cAMP production in neonatal cardiomyocytes (HTRF, Gs-coupled receptor activation); format: cell-based, rat; details: for pEC50: neonatal rat cardiomyocytes
Experimental: Activation of cardiomyocyte Gs- and Gi-coupled receptors was determined as a measure of cAMP production.
Neonatal cardiomyocytes were isolated using a commercially available system. […] Sprague Dawley neonatal rats (1-2 days old) were decapitated and the beating heart dissected out into digestion buffer (Cellutron D1 buffer) to dissociate cells. […] The resuspended cells incubated in buffer (Cellutron D3 buffer) for sufficient time to allow optimal dispersion and minimize the need for pipetting to break up clumps. Cells released from the first 2 digestions were discarded since a significant portion of these is red blood cells. Resuspended cells were filtered and allowed to pre-plate for 1 hour on plastic in an incubator in NS media (Cellutron, N.J.) in order to remove fibroblasts. After 1 hour of pre-plating, floating cells are removed and the flask rinsed with NS media. The floating cells and the cells in the rinse media were combined and counted. Residual red blood cells, which are smaller that the cardiac myocytes, were not counted.
At Day 1, the NS media was replaced with fresh NS media.
Dose response was determined.
For Gs assays the positive control was 10 uM forskolin and negative control was buffer. For Gi assays the positive control was buffer and the negative control was 10 uM forskolin.

[9] = Body composition in DIO mice; format: in vivo, C57BL/6J mice; details: mouse, in vivo
Text: During the study, the mice can continue to eat their high-fat diet. Water can be provided ad libitum throughout the study.
DIO mice can be implanted with subcutaneous (SC) intrascapular osmotic pumps to deliver either vehicle (50% dimethylsulfoxide (DMSO) in water) or a compound of the invention. […] Body weights and food intake can be measured over regular intervals throughout the study periods. Respiratory quotient (RQ, defined as CO2 production÷O2 consumption) and metabolic rate can be determined using whole-animal indirect calorimetry (Oxymax, Columbus Instruments, Columbus, Ohio). The mice can be euthanized by isoflurane overdose, and an index of adiposity (bilateral epididymal fat pad weight) measured. Moreover, prior to determination of epididymal weight, body composition (lean mass, fat mass) for each mouse can be analyzed using a Dual Energy X-ray Absorptiometry (DEXA) instrument per manufacturer's instructions (Lunar Piximus, GE Imaging System).

[10] = conscious rats, cited from earlier work; for EC(50) nmol/kg for inhibition of gastric emptying: subcutaneous 5 min before gavage
pancreatic CCK receptor = details: cited from earlier work
[11] = normal men, infusion; cited from earlier work
human GIP receptor = target: T1, human GIP receptor (Homo sapiens, UniProt P48546); test: biochemical; format: binding; details: read-out: (% Inh 10 nm, GIP-LF Assay)
T1 construct: expressed in transfected cells; host or cells: HEK293 (HEK-GIPR), membranes
T1 sequence (P48546 22-466): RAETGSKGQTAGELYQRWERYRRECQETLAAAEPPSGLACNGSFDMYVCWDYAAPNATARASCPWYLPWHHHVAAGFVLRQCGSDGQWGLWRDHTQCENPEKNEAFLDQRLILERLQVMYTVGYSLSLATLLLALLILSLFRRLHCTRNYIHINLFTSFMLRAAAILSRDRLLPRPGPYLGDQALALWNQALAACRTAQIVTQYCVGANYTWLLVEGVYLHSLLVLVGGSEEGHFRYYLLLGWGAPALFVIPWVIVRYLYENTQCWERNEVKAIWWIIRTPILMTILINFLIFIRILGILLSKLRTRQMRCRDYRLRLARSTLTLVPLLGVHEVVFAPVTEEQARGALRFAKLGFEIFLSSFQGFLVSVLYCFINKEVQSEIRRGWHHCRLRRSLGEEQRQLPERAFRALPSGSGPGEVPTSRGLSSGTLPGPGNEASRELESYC

dAla2-GIP(1-42) acid form [Compound 0601GIP4042]
insulinotropic response to an intravenous glucose challenge (IVGTT assay) [1]: significant enhancement of the insulinotropic response
basal glucose lowering (% maximal decrease) ([2]; mouse, in vivo): −11%

Y(D-Ala)EGTFISDYSIAMDKIHQQDFVNWLLAQKPSSGAPPPS-NH2 [Compound 0601GIP3794]
insulin levels prior to the glucose challenge [1]: significant rise in insulin levels
insulinotropic response to an intravenous glucose challenge (IVGTT assay) [1]: significant enhancement of the insulinotropic response
IVGTT > = < Compared to 0601GIP3794 ([1]; in vivo): =
Standard IVGTT assay IV infusion (insulin AUC 0-30 min) ([1]; in vivo, iv): 249
OGTT/GL (%) ([3]; 10 nmol/kg): −17% 10 nmol/kg
OGTT/GL (%) ([3]; 350 nmol/kg): −21% 350 nmol/kg,
OGTT (compared to 0601GIP3794) ([3]; mouse, in vivo): =794
OGTT ED50 ([3]; mouse, in vivo): ED50 ~2 nmol/kg,
OGTT response ([3]; mouse, in vivo): −21%
dP/dt [4]: increased dP/dt similarly
effect on heart rate [4]: transient relative to GIP
effect on mean arterial pressure [4]: decreased mean arterial pressure
systolic and diastolic pressures [4]: sustained lowering of systolic and diastolic pressures
Basal Glucose Lowering at 80 nmol/Kg ([2]; 80 nmol/kg, AUC180): −9%, AUC180
Basal Glucose Lowering at Peptide Conc. of 80 nmol/kg ([2]; 80 nmol/kg): −7 to −20%,
glucose lowering profile over 240 min (FIGS. 8-10) ([2]; 2-hour fasted NIH/Swiss mice, IP): gradually increasing activity that peaks at t=120 min, and is more sustained than native GIP or its D-Ala2 version
glucose lowering in normal mice (FIGS. 3A and 3B) ([2]; NIH/Swiss mice, IP): significantly more efficacious than full length GIP
GL (glucose lowering, compared to 0601GIP3794) ([2]; mouse, in vivo): =794
basal glucose lowering (% maximal decrease) ([2]; mouse, in vivo): −20%
Duration of action in assay (insulin AUC 0-30 min) ([5]; SC inj T = −30 min): 198
Duration of action in assay (insulin AUC 0-30 min) ([5]; SC inj T = −60 min): 159
Duration of action in assay (insulin AUC 0-30 min) ([5]; SC inj T = −120 min): 204
Duration of action in assay (insulin AUC 0-30 min) ([5]; SC inj T = −240 min): 79
DOA (duration of action, compared to 0601GIP3794) ([5]; time not stated): =794
food intake [6]: did not acutely inhibit food intake
Basal Glucose Lowering in db/db ([7]; 80 nmol/kg, t = 120): −33%, 80 nmol/kg,
glucose lowering in a diabetic mouse model (FIG. 4) ([7]; db/db mice, IP): pronounced and long-acting effect in lowering glucose
pEC50 ([8]; 30 minutes, read-out: EC50 of cAMP production (this experiment, FIGS. 18A/18B)): 7.93
pEC50 ([8]; read-out: EC50 of cardiomyocyte Gs-coupled receptor activation (three independent experiments)): 7.53
body composition [9]: slight decrease in percentage body fat with an increase in body protein without a concomitant reduction in body weight

[dAla2, Leu14, Ala18, glu21] GIP-(1-30)-Exendin-4 (31-39) [Compound 0601GIP4285]
IVGTT > = < Compared to 0601GIP3794 ([1]; in vivo): =
OGTT/GL (%) ([3]; 30 nmol/kg): −17% and −17 30 nmol/kg, %
OGTT/GL (%) ([3]; 350 nmol/kg): −10 350 nmol/kg %
Basal Gluc. Low. 80 nmol/Kg ([2]; 80 nmol/kg): −2%,
Basal Glucose Lowering at Peptide Conc. of 80 nmol/kg ([2]; 80 nmol/kg): −2%, AUC240

VIP: vasoactive intestinal peptide (HSDAVFTDNYTRLRKQMAVKKYLNSILN; ends and bridges not checked; UniProt P01282 125-152, looked up)
inhibition of gastric emptying at doses of 100 μg [10]: either weakly active or inactive

octylglycine-GIP(1-30)-Exendin-4-(31-39) [Compound 0601GIP4178]
insulin levels prior to the glucose challenge [1]: significant rise in insulin levels
insulinotropic response to an intravenous glucose challenge (IVGTT assay) [1]: diminished insulinotropic response
IVGTT > = < Compared to 0601GIP3794 ([1]; in vivo): <
OGTT/GL (%) ([3]; 350 nmol/kg): −20%
OGTT response ([3]; mouse, in vivo): −20%
Basal Glucose Lowering at Peptide Conc. of 80 nmol/kg ([2]; 80 nmol/kg): −13%, AUC240
basal glucose lowering (% maximal decrease) ([2]; mouse, in vivo): −20%

neuropeptide Y: peptide hormone of the pancreatic polypeptide family
inhibition of gastric emptying at doses of 100 μg [10]: either weakly active or inactive

Human GIP
Standard IVGTT assay IV infusion (insulin AUC 0-30 min) ([1]; IV infusion 100 pmol/min/kg): 226
Duration of action in assay (insulin AUC 0-30 min) ([5]; SC inj T = −30 min): 57

KCNTATCATQRLANFLVRSSNNLGPVLPPTNVGSNTY [rat amylin]
EC(50) nmol/kg for inhibition of gastric emptying [10]: 0.23 nmol/kg
Mouse Food Intake, % basal ([6]; 30 min): −58 % basal
Mouse Food Intake, % basal ([6]; 60 min): −40 % basal
Mouse Food Intake, % basal ([6]; 120 min): −36.5 % basal
Mouse Food Intake, % basal ([6]; 180 min): −35.5 % basal
food intake [6]: significant decrease in food intake within 30 min

insulin: peptide hormone
inhibition of gastric emptying at doses of 100 μg [10]: either weakly active or inactive

[dAla2]GIP-(1-30)-[Octylglycine 34] Exendin-4 (31-39) [Compound 0601GIP4252]
Standard IVGTT assay IV infusion (insulin AUC 0-30 min) ([1]; IV infusion 100 pmol/min/kg): 218
IVGTT > = < Compared to 0601GIP3794 ([1]; in vivo): =
Basal Glucose Lowering at Peptide Conc. of 80 nmol/kg ([2]; 80 nmol/kg): −7%, AUC240

adrenomedullin: amylin family peptide hormone (YRQSMNNFQGLRSFGCRFGTCTVQKLAHQIYQFTDKDKDNVAPRSKISPQGY; ends and bridges not checked; cysteine pairing not given here; UniProt P35318 95-146, looked up)
inhibition of gastric emptying at doses of 100 μg [10]: either weakly active or inactive

glucagon: peptide hormone
inhibition of gastric emptying at doses of 100 μg [10]: either weakly active or inactive

DY(SO3)MGWMDF [CCK-8]
potency of binding displacement relative to unsulfated CCK-8 or CCK-4 (pancreatic CCK receptor): 1000-5000
EC(50) nmol/kg for inhibition of gastric emptying [10]: 12.8 nmol/kg

HAEGTFTSDVSSYLEGQAAKEFIAWLVKGR [GLP-1]
cAMP activity in cardiomyocytes [8]: very low to no significant activity

[dAla2, Leu14, beta-Ala31, beta-Ala32] GIP-(1-32)-Exendin-4 (31-39) [Compound 0601GIP4179]
IVGTT > = < Compared to 0601GIP3794 ([1]; in vivo): =
OGTT/GL (%) ([3]; 30 nmol/kg): −24 30 nmol/kg, %
OGTT/GL (%) ([3]; 350 nmol/kg): −23 350 nmol/kg %
Basal Glucose Lowering at Peptide Conc. of 80 nmol/kg ([2]; 80 nmol/kg): −17%, AUC240

BNP: brain natriuretic peptide
increase in sodium excretion [11]: 2 fold
reduction in plasma renin, angiotensin II and aldosterone secretion [11]: 50%

HSDGIFTDSYSRYRKQMAVKKYLAAVLGKRYKQRVKNK-NH2 [PACAP38]
inhibition of gastric emptying at doses of 100 μg [10]: either weakly active or inactive

CC[C@H](C)[C@H](NC(=O)[C@H](CO)NC(=O)[C@H](Cc1ccc(O)cc1)NC(=O)[C@H](CC(=O)O)NC(=O)[C@H](CO)NC(=O)[C@@H](NC(=O)[C@H](Cc1ccccc1)NC(=O)[C@@H](NC(=O)CNC(=O)[C@H](CCC(=O)O)NC(=O)[C@@H](C)NC(=O)[C@@H](N)Cc1ccc(O)cc1)[C@@H](C)O)[C@@H](C)CC)C(=O)N[C@@H](C)C(=O)N[C@@H](CCSC)C(=O)N[C@@H](CC(=O)O)C(=O)N[C@@H](CCCCN)C(=O)N[C@H](C(=O)N[C@@H](Cc1c[nH]cn1)C(=O)N[C@@H](CCC(N)=O)C(=O)N[C@@H](CCC(N)=O)C(=O)N[C@@H](CC(=O)O)C(=O)N[C@@H](Cc1ccccc1)C(=O)N[C@H](C(=O)N[C@@H](CC(N)=O)C(=O)N[C@@H](Cc1c[nH]c2ccccc12)C(=O)N[C@@H](CC(C)C)C(=O)N[C@@H](CC(C)C)C(=O)N[C@@H](C)C(=O)N[C@@H](CCC(N)=O)C(=O)N[C@@H](CCCCN)C(=O)N1CCC[C@H]1C(=O)N[C@@H](CCCCN)C(=O)N[C@@H](CCCCN)C(=O)N[C@@H](C)C(=O)N[C@@H](CCCNC(=N)N)C(=O)N[C@@H](Cc1ccc(O)cc1)C(=O)N[C@@H](CO)C(N)=O)C(C)C)[C@@H](C)CC [Compound 0601GIP4856]
OGTT/GL (%) ([3]; 30 nmol/kg): −29, %
inhibition at 0.01 µM (human GIP receptor): 83.7%
Basal Gluc. Low. 80 nmol/Kg ([2]; 80 nmol/kg): −3%,
Duration In The Rat IVGTT Assay ([5]; compared with 0601GIP3794 (794), dosed at −120 min): <794@ −120 min
